# How the values were obtained:
# Histamine H3 receptor [1] = molecular target: T1, Histamine H3 receptor (Cavia porcellus, UniProt Q9JI35); experiment: Histamine H3 radioligand binding assay, guinea pig ileum ([3H]-R-α-methylhistamine); set-up: The cortex was dissected, weighed and homogenised in ice-cold 20 mM Hepes-NaOH buffer; from tissue; host or cells: guinea pig cerebral cortex membranes; conditions: guinea pig ileum longitudinal muscle myenteric plexus membranes; [3H]-R-α-methylhistamine 3 nM; typical variance ±0.12 log units; read-out: pKI (binding assay) - ileum (converted)
# T1 sequence (Q9JI35 whole entry): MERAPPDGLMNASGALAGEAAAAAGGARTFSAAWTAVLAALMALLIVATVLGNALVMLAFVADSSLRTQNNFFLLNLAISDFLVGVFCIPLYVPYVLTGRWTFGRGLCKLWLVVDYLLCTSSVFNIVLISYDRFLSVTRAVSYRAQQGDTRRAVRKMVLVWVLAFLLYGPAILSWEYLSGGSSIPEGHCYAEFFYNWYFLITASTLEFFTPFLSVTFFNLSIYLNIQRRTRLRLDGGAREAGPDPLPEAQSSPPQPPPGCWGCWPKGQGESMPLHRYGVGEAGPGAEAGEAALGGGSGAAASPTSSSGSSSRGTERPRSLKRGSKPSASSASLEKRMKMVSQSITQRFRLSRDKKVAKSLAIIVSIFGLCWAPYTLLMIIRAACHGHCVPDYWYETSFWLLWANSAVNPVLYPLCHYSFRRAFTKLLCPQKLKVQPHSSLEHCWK
# Procedure: Histamine H3 Radioligand Binding Assay—Guinea Pig Ileum
# Male Dunkin Hartley guinea pigs (200-300 g) were used. The small intestine was rapidly removed (cut ^˜5 cm from caecum and 5 cm from stomach) and placed in ice-cold 20 mM Hepes-NaOH buffer (pH7.4 at 21±3° C.). The tissue was cut into ^˜10 cm segments, flushed through with ice-cold 20 mM Hepes-NaOH buffer and placed in a beaker containing fresh buffer at 4° C. 10 cm segments of ileum were threaded onto a glass pipette and the longitudinal muscle myenteric plexus was peeled away from the circular muscle using damp cotton-wool. Longitudinal muscle myenteric plexus was immediately placed in ice-cold Viaspan® solution (^˜100 ml for tissue from 3 guinea pigs) and placed in the refrigerator for 24 hours.
# Pre-soaked tissue was weighed and minced with scissors. The tissue was then homogenised in Viaspan® using a polytron (Kinematica AG; PT-DA 3020/2TS, 3×^˜1-2 s). 50 ml of 500 mM Tris HCl (pH6.9 at 21±3° C.) was added to the tissue and the mixture centrifuged at 39,800×g for 12 min at 4° C. The supernatant was discarded and rehomogenised in 100 ml ice-cold 20 mM Hepes-NaOH buffer (pH7.4 at 21±3° C.) using a teflon-in-glass homogeniser (setting 10; 3×). The homogenate was recentrifuged at 39,800×g and the pellet resuspended in 20 mM Hepes-NaOH buffer (pH7.4 at 21±3° C.), to a tissue concentration of 50 mg.ml^−1, using a polytron (Brinkman, PT10, 3×^˜1 s).
# Guinea pig ileum longitudinal muscle myenteric plexus membranes (400 μl) were incubated for 165 min at 21±3° C. in a final volume of 500 μl with 20 mM Hepes-NaOH buffer containing [^3H]-R-α-methylhistamine (50 μl; 3 nM) and competing compound. Total and non-specific binding of [^3H]-R-α-methylhistamine were defined using 50 μl of buffer and 50 μl of 10 μM thioperamide, respectively. The assay was terminated by rapid filtration through Whatman GF/B filters, presoaked (2 hr) in 0.1% polyethyleneimine, using a Brandell Cell Harvester. The filters were washed (3×3 ml) with ice-cold 50 mM Tris-HCl (pH6.9 at 21±3° C.), transferred into scintillation vials, 5 ml liquid scintillation cocktail was added and after 4 hours the bound radioactivity was determined by counting (4 min) in a Beckman liquid scintillation counter.
# Data are analysed using GraphPad prism and the general equation for a competition curve with variable Hill slope (nH). [formula]
# X is the log concentration of competing compound,
# Y is the binding obtained at each concentration of X,
# pIC50 is the […] required to compete for half of the specific binding.
# The IC50 is converted to the K1 using the Cheng Prusoff equation,
# IC50 is the concentration of competitor required to compete for half the specific binding,
# L is the radioligand concentration used,
# KD is the equilibrium dissociation constant for the radioligand determined by saturation experiments.
# Typical variance in this assay is ±0.12 log units.
# Histamine H3 receptor [2] = molecular target: T1, Histamine H3 receptor; experiment: Histamine H3 radioligand binding assay, guinea pig cortex ([3H]-R-α-methylhistamine); set-up: The cortex was dissected, weighed and homogenised in ice-cold 20 mM Hepes-NaOH buffer; from tissue; host or cells: guinea pig cerebral cortex membranes; conditions: guinea pig cortex membranes; [3H]-R-α-methylhistamine 0.1 nM; typical variance ±0.12 log units; read-out: pKI (binding assay) - cortex (converted)
# Procedure: Histamine H3 Radioligand Binding Assay—Guinea Pig Cortex
# Male Dunkin Hartley guinea pigs (200-300 g) were used. The whole brain was removed and immediately placed in ice-cold 20 mM Hepes-NaOH buffer (pH7.4 at 21±3° C.). The cortex was dissected, weighed and homogenised in ice-cold 20 mM Hepes-NaOH buffer (pH7.4 at 21±3° C.) (50 ml/guinea-pig cortex) using a polytron (Kinematica AG; PT-DA 3020/2TS, 3×3 s). The homogenate was centrifuged at 100×g for 5 min and the supernatants pooled and stored at 4° C. The pellets were rehomogenised in fresh ice-cold buffer (80 ml) and recentrifuged (100×g for 5 min). The supernatants were pooled and pellets rehomogenised and recentrifuged (100×g for 5 min). All supernatants were pooled and centrifuged at 39,800×g for 12 min at 4° C. The final pellet was resuspended in 20 mM Hepes-NaOH buffer (pH7.4 at 21±3° C.) to a tissue concentration of 7.5 mg.ml^−1, using a teflon-in-glass homogeniser.
# Incubation Conditions and Data Analysis
# These were essentially identical to those used for the guinea pig ileum myenteric plexus assay described above, except that the final assay concentration of [^3H]-R-α-methylhistamine was 0.1 nM. Typical variance in this assay is ±0.12 log units.
# Histamine H3 receptor [3] = molecular target: T1, Histamine H3 receptor; experiment: ileal longitudinal muscle, myenteric plexus functional assay (rightward shift of R-(α)-methylhistamine E/[A] curves, Schild); type: cell-based; set-up: the longitudinal muscle layer and adhering myenteric plexus was teased away; from tissue; host or cells: guinea pig ileal longitudinal muscle with myenteric plexus (organ bath); conditions: guinea pig ileum longitudinal muscle myenteric plexus, electrically stimulated; antagonism of R-(α)-methylhistamine; typical variance ±0.15 log units; read-out: pKB (functional assay) - ileum (converted)
# Procedure: The biological activity of the compounds of the examples was measured using the ileal longitudinal muscle, myenteric plexus assay described by Paton and Aboo Zar (J. Physiol. 1968, 194, 13-33). Male Dunkin-Hartley guinea pigs (250-300 g) were employed. Briefly, a 50 cm portion of ileum proximal to the caecum was removed, after discarding the terminal 20 cm. Ileal segments (3 cm) were cleaned by passing Krebs-Henseleit buffer containing 3 μM mepyramine gently through the ileum using a Pasteur pipette (size: 13.8 cm length, 0.65 cm diameter). To avoid unnecessary damage to the tissue, Krebs-Henseleit buffer was passed through the ileal segment, while it was lying horizontally on a petri dish. Therefore, the ileum was not over-distended and the buffer flowed through with ease. Each segment was then passed over a Pasteur pipette and the longitudinal muscle layer and adhering myenteric plexus was teased away using moist cotton wool, by stroking tangentially away from the mesenteric attachment. The tissues were suspended in 20 ml organ baths containing Krebs-Henseleit buffer at 37±1° C. and gassed with 95% CO2/5% O2. The tissues were ligated to two parallel stainless steel wires, situated between two platinum electrodes (0.76 cm length, 0.06 cm diameter). All measurements were recorded isometrically (Grass FTO3 transducer). Following an initial loading tension of 1 g, the tissues were stimulated with electrical pulses at a frequency of 0.1 Hz and a pulse duration of 0.5 msec, as described by Kosterlitz & Watt (Br. J. Pharmacol. 1968, 266-276). Initially, the tissues were stimulated at supramaximal (1.3 fold times maximal) voltage for a period of 30 min and then the tissues were washed and re-stimulated. A “sighter dose” of the selective histamine H3-receptor agonist, R-(α)-methylhistamine (0.3 μM) (Arrang et al. Nature, 1987, 117-123), was administered. Upon generation of response, the “sighter dose” was removed from the tissues by “washout” (6 washes over 60 min) and during this period the electrical stimulation was switched off. The tissues were then re-stimulated and allowed to stabilise prior to the addition of drug treatments, which were allocated on a randomised block basis to the organ baths. Following the incubation period, a single cumulative E/[A] curve was obtained. The experimental E/[A] curve data was expressed as the percentage inhibition of the peak height of electrically-stimulated contraction. Antagonist affinity values were calculated from the degree of rightward shift of the R-(α)-methylhistamine E/[A] curves using Schild's methods (Arunlakshana & Schild Br. J. Pharmacol. 1959, 48-58). Typical variance in this assay is ±0.15 log units.
Ki (Histamine H3 receptor [1]),Ki (Histamine H3 receptor [2]),Kb (Histamine H3 receptor [3]),Compound
1.86 nM,2.63 nM,3.47 nM,"O=S(=O)(CCCCCc1c[nH]cn1)NCc1ccc(Cl)cc1 [Example 5, N-(4-Chlorobenzyl)-5-(1H-imidazol-4-yl)-1-pentanesulfonamide]"
12.6 nM,5.01 nM,16.2 nM,"O=S(=O)(CC(O)CCCc1c[nH]cn1)NCc1ccc(Cl)cc1 (centres unmarked) [Example 6, N-(4-Chlorobenzyl)-2-hydroxy-5-(1H-imidazol-4-yl)-1-pentanesulfonamide]"
60.3 nM,14.1 nM,49 nM,"O=S(=O)(CC(O)CCCc1c[nH]cn1)NCCc1ccc(Cl)cc1 (centres unmarked) [Example 12, N-(4-Chlorophenethyl)-2-hydroxy-5-(1H-imidazol-4-yl)-1-pentanesulfonamide]"
10.2 nM,4.47 nM,7.76 nM,"O=S(=O)(CCCCCc1c[nH]cn1)CCc1ccc(Cl)cc1 [Example 26, [5-(1H-Imidazol-4-yl)pentyl] 4-chlorophenethyl sulfone]"
–,1.32 nM,12.3 nM,"NCC(CCCc1c[nH]cn1)CS(=O)(=O)NCc1ccc(Cl)cc1 (centres unmarked) [Example 38, 2-Aminomethyl-N-(4-chlorobenzyl)-5-(1H-imidazol-4-yl)-1-pentanesulfonamide]"
–,2.95 nM,24.5 nM,"CNC(CCCc1c[nH]cn1)CS(=O)(=O)NCc1ccc(Cl)cc1 (centres unmarked) [Example 39, N-(4-Chlorobenzyl)-2-methylamino-5-(1H-imidazol-4-yl)-1-pentanesulfonamide]"
–,1580 nM,2630 nM,"O=S(=O)(/C=C/C=C/c1c[nH]cn1)NCc1ccc(Cl)cc1 [Example 41, (E,E)-N-(4-Chlorobenzyl)-4-(1H-imidazol-4-yl)-1-but-1,3-dienesulfonamide]"
–,1230 nM,2090 nM,"O=S1(=O)C2C=CC(c3c[nH]cn3)CC2CN1Cc1ccc(Cl)cc1 (centres unmarked) [Example 42, 2-(4-Chlorohenzyl)-5-(1H-imidazol-4-yl)-2,3,3a, 4,5,7a-hexahydro-benzo[d]isothiazole 1,1-dioxide]"

Compound,Ki (Histamine H3 receptor [1]),Ki (Histamine H3 receptor [2]),Kb (Histamine H3 receptor [3])
"O=S(=O)(CCCCc1c[nH]cn1)NCc1ccc(Cl)cc1 [Example 1, N-(4-Chlorobenzyl)-4-(1H-imidazol-4-yl)-1-butanesulfonamide]",8.51 nM,2.63 nM,8.71 nM
"O=S(=O)(/C=C/CCc1c[nH]cn1)NCc1ccc(Cl)cc1 [Example 3, (E)-N-(4-Chlorobenzyl)-4-(1H-imidazol-4-yl)-1-but-1-enesulfonamide]",10.2 nM,2.75 nM,12.6 nM
"O=S(=O)(CCCCCc1c[nH]cn1)Cc1ccc(Cl)cc1 [Example 27, [5-(1H-Imidazol-4-yl)pentyl] 4-chlorobenzyl sulfone]",11.7 nM,0.661 nM,14.1 nM

# Reference: patent US6355665B1, “1H-4(5)-substituted imidazole derivatives, their preparation and their use as histamine H3 receptor ligands” (James Black Foundation Limited, priority 1997, dated 2002)
